Test results reported in patent US20230077155A1, “TETRAHYDROISOQUINOLINE COMPOUND AS POTASSIUM CHANNEL MODULATOR AND PREPARATION AND APPLICATION THEREOF” (Shanghai Zhimeng Biopharma, Inc., priority 2020, published 2023).

Experiments:
[1] = biological target: T1, KCNQ2 potassium channel (CHO-KCNQ2 cells) (Homo sapiens, UniProt O43526); experiment: Potassium ion channel opener activity test (FDSS/μCELL detection, FluxOR thallium flux); type: cell-based; details: for Maximum agonist rate (%): highest test concentration 100 μM
T1 construct: expressed in transfected cells; host or cells: CHO cells stably expressing KCNQ2, kept under G418 selection
T1 sequence (O43526 whole entry): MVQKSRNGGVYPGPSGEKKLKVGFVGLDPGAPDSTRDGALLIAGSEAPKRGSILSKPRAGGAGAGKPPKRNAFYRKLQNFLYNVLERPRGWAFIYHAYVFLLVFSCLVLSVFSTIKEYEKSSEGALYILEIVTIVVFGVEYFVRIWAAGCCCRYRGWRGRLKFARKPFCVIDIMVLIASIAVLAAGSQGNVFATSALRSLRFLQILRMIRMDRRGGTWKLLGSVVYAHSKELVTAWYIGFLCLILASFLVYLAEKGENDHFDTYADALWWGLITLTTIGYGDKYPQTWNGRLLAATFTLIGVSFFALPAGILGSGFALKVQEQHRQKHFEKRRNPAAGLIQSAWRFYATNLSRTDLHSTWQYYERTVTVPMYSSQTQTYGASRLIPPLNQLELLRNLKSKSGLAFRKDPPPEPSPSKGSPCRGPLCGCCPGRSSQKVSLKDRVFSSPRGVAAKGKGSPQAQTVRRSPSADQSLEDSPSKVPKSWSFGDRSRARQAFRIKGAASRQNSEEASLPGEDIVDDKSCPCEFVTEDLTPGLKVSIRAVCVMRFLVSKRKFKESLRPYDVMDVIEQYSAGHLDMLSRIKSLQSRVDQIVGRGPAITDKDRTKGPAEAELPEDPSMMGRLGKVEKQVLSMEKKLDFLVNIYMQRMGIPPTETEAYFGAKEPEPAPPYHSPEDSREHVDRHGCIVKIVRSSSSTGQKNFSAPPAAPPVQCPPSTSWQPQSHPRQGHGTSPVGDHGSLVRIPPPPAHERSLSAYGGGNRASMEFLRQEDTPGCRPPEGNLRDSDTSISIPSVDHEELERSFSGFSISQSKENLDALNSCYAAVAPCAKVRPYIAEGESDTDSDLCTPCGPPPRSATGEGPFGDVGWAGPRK
Description: Potassium Ion Channel Opener Activity Test (FDSS/μCELL Detection)
1.1 Experimental procedure
Cell preparation: CHO-KCNQ2 cells were cultured in a 175 cm^2 culture flask, and when the cell density grew to 60-80%, the culture medium was removed, washed with 7 mL PBS (Phosphate Buffered Saline) once, then 3 mL 0.25% Trypsin was added to digest. After the digestion was completed, 7 mL culture medium (90% DMEM/F12+10% FBS±500 μg/mL G418) was added to neutralize, centrifugated for 3 minutes at 800 rpm. The supernatant was aspirated, then 5 mL culture medium was added to resuspend, and then the cells were counted.
Cell plating: according to the results of cell counting, the density was adjusted to 3×10^4 cells/well. After standing at room temperature for 30 minutes, the plate was placed in a 37° C. CO2 incubator and incubated overnight for 16-18 hours. The cell density reached about 80%.
Fluorescent dye incubation: the cell culture medium was discarded, 80 μL/well loading buffer was added, and incubated in the dark at room temperature for 60 minutes. Compound incubation: the loading buffer was discarded, 80 μL/well prepared compound solution was added, and incubated in the dark at room temperature for 20 minutes.
Fluorescence data collection: FDSS/μCELL instrument was used for real-time fluorescence signal recording with excitation wavelength at 480 nm and emission wavelength at 540 nm, recorded 1 time per second, and 20 μL/well stimulation buffer was started to add after recording for 10 seconds for baseline, and then continued to record until the end of 180 seconds.
The above buffer come from a commercially available kit named FluxOR potassium ion channel assay.
20 mM DMSO compound mother liquor was prepared, 10 μL of 20 mM compound mother liquor was took into 20 μL DMSO solution, serially diluted 3 times to 8 intermediate concentrations; then the intermediate concentrations of the compound was took out and added to the test buffer, diluted for 200 times to get the final concentration to be tested, 80 μL was took out and added to the test plate.
The highest test concentration was 100 μM, followed by […], 33.33, 11.11, 3.70, 1.23, 0.41, 0.137, 0.045 μM, total 8 concentrations. Each concentration set 3 duplicate wells.
This concentration of DMSO has no effect on the KCNQ2 potassium channel.
Experimental data was analyzed by Excel 2007 and GraphPad Prism 5.0 software, and the ratio of 180 seconds was calculated to calculate the agonism effect. The agonism effect of the compound was calculated by the following formula: […]
Reagent: FluxORTM Detection Kit (Invitrogen, Cat #F0017)
The experimental data in the report must meet the following criteria: Z′ Factor>0.5
2. Results: See Table 1, wherein the smaller the EC50 is, the higher the activity of the corresponding compound is.

[2] = Pharmacokinetics of mice, single intravenous and oral administration, plasma; type: in vivo; details: male ICR mice; for F: gavage 10 mg/kg vs intravenous; for AUC(0-inf) / AUC(0-t) / Cmax / Tmax / half-life: mouse, plasma
Description: Study on Pharmacokinetics of Mice
1) Research purposes: In order to obtain the pharmacokinetic characteristics and blood-brain barrier of the tested compound in male ICR mice
Six healthy male ICR mice (body weight range 18-22 g) were taken and divided into 2 groups and 3 mice/group. After fasting overnight (only oral administration group), […], blood was collected by jugular vein puncture at time points 0.083 (IV only), 0.25, 0.5, 1, 2, 4, 6 (PO only), 8 and 24 hours, and at least 0.3 mL of whole blood was collected to EDTA-K2 anticoagulant tube. Plasma was centrifuged (6000 rpm, 8 minutes, 4° C.) within half an hour and frozen at −20° C. for later use.
(§1) Experimental results: According to the blood drug concentration data obtained, the non-compartmental model of WinNonlin® 7.0 software (Pharsight, USA) was used to calculate the pharmacokinetic parameters after administration.

[3] = Brain-blood ratio study in mice after single oral administration; type: in vivo; details: mouse, brain and plasma, male ICR mice, single oral 10 mg/kg, read-out: Cerebral blood ratio; for Kp at 2 h: time point 2 h; for Kp at 4 h: time point 4 h
Description: Brain-blood ratio study: 6 healthy male ICR mice (body weight range 18-22 g) were taken and divided into 2 groups and 3 mice/group. After fasting overnight, the compound to be tested (10 mg/kg) was administrated orally respectively. Blood was taken through cardiac puncture at time points 2 and 4 hours, at least 0.5 mL of whole blood was collected to EDTA-K2 anticoagulant tube. Plasma was centrifuged (6000 rpm, 8 minutes, 4° C.) within half an hour and frozen at −20° C. for later use. At the same time, the brain tissue was collected, rinsed with normal saline, then sucked to dryness with absorbent paper, weighed, and frozen at −20° C. for later use.
The cerebral blood ratio is very important to nerve drugs, and it can be seen from Table 3 that the compounds of the present invention have excellent cerebral blood ratio, which will bring better drug efficacy and excellent safety. By comparing the cerebral blood ratios of compound A, compound 1, compound B and compound J, it can be seen that after the tert-butyl of compound A or compound B has been changed into […]

[4] = Pharmacokinetics of rats, single intravenous and oral administration, plasma; type: in vivo; details: male SD rats; for F: gavage 5 mg/kg vs intravenous 0.3 mg/kg; for AUC(0-inf) / AUC(0-t) / Cmax / Tmax / half-life: rat, plasma
Description: Study on Pharmacokinetics of Rats
1) Research purpose: To obtain the pharmacokinetic characteristics of the compounds to be tested in male SD rats.
Pharmacokinetic study: 6 healthy male SD rats (SPF grade) were divided into 2 groups and 3 rats/group. After fasting overnight (only oral administration group), compound A was administrated 0.3 mg/kg intravenously and 5 mg/kg orally, blood was collected by jugular vein puncture at time points 0.083 (IV only), 0.25, 0.5, 1, 2, 4, 6 (PO only), 8 and 24 hours, and at least 0.3 mL of whole blood was collected to EDTA-K2 anticoagulant tube. Plasma was centrifuged (6000 rmp, 8 minutes, 4° C.) within half an hour and frozen at −20° C. for later use.
as §1

[5] = intravenous 1 mg/kg (footnote *)

EC50 [1] [nM] | Maximum agonist rate (%) [1] [%] | F [2] [%] | AUC(0-inf) ([2]; po, gavage 10 mg/kg) [ng·h/mL] | AUC(0-t) ([2]; po, gavage 10 mg/kg) [ng·h/mL] | Cmax ([2]; po, gavage 10 mg/kg) [ng/mL] | Tmax ([2]; po, gavage 10 mg/kg) [min] | half-life ([2]; po, gavage 10 mg/kg) [min] | Kp at 2 h [3] | Kp at 4 h [3] | F [4] [%] | AUC(0-inf) ([4]; po, gavage 5 mg/kg) [ng·h/mL] | AUC(0-t) ([4]; po, gavage 5 mg/kg) [ng·h/mL] | Cmax ([4]; po, gavage 5 mg/kg) [ng/mL] | Tmax ([4]; po, gavage 5 mg/kg) [min] | half-life ([4]; po, gavage 5 mg/kg) [min] | AUC(0-inf) ([4]; intravenous 0.3 mg/kg) [ng·h/mL] | AUC(0-t) ([4]; intravenous 0.3 mg/kg) [ng·h/mL] | Cmax ([4]; intravenous 0.3 mg/kg) [ng/mL] | Tmax ([4]; intravenous 0.3 mg/kg) [min] | other results | SMILES
440 | 38.3 | 24.6 | 539 | 528 | 192 | 19.8 | 232 | 6 | 5.8 | 30.11 | 855 | 822 | 221 | 30 | 375 | 166 | 164 | 345 | 4.8 | AUC(0-inf) ([2]; intravenous 0.5 mg/kg): 108 ng·h/mL; AUC(0-t) ([2]; intravenous 0.5 mg/kg): 107 ng·h/mL; Cmax ([2]; intravenous 0.5 mg/kg): 299 ng/mL; Tmax ([2]; intravenous 0.5 mg/kg): 4.8 min; half-life ([2]; intravenous 0.5 mg/kg): 51.6 min; half-life ([4]; intravenous 0.3 mg/kg): 104 min | Cc1cc2c(c(C)c1NC(=O)CC1(C)CC1)CCN(c1ccc(F)cc1)C2 [Compound I]
160 | 37.5 | 88.56 | 1430 | 1400 | 776 | 15 | 158 | 0.99 | 0.72 | 43.63 | 1080 | 1070 | 128 | 240 | 208 | 149 | 147 | 352 | 4.8 | AUC(0-inf) [2, 5]: 161 ng·h/mL; AUC(0-t) [2, 5]: 158 ng·h/mL; Cmax [2, 5]: 405 ng/mL; Tmax [2, 5]: 4.8 min; half-life [2, 5]: 56.4 min; half-life ([4]; intravenous 0.3 mg/kg): 120 min | Cc1cc2c(c(C)c1NC(=O)CC(C)(C)C)CCN(c1ccc(F)cc1F)C2 [Compound B]
